Assay results reported in patent publication US8598132B2, “Glycosylated indolocarbazoles, method for obtaining same and uses thereof” (Universidad de Oviedo, priority 2008, dated 2013).
pIC50: −log10 of the molar value.

Target: T1, Chk1 (Homo sapiens, UniProt O14757)
T1 construct: purchased Carna Biosciences
T1 sequence (O14757 1-476): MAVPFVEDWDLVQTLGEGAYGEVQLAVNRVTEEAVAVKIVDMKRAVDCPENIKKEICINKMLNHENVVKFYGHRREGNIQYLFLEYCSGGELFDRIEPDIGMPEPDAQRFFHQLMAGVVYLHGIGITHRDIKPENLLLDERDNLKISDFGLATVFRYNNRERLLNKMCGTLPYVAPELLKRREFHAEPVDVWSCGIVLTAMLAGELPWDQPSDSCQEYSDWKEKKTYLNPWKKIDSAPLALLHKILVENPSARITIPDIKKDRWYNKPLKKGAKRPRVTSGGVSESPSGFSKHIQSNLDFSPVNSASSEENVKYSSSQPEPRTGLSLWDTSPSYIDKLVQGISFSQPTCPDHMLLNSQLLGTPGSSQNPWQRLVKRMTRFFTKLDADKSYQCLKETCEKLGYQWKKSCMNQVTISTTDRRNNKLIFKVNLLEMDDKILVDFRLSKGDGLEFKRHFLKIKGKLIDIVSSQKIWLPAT
Experiment: LabChip (Caliper) kinase assay, Chk1
Type: biochemical
Conditions: for inhibition at 0.01 µM: compound at 10 nM; for inhibition at 0.01 µM / inhibition at 0.1 µM: read-out: remaining kinase activity (in %) / percentage of inhibition; for inhibition at 0.1 µM: compound at 100 nM; for pIC50: ATP at Km, read-out: CI50 (the source's name)
Method: The analysis of kinase activity described here was performed using LabChip (Caliper Life Sciences), specifically the Caliper LC3000 and the EZ Reader II instruments.
The kinase assay used measures the conversion of a fluorescent peptide (substrate) to a phosphorylated product. The reaction mixture, in a microplate well, is introduced by a capillary in a chip where the non-phosphorylated substrate and the phosphorylated product are separated by […]. The intensity of the fluorescent signal over time is related to the reaction progress. The phosphorylated product migrates quicker than the non-phosphorylated substrate and the signals of the two forms of the peptide appear as differentiated peaks. The Caliper determines the peak height and calculates the ratio of product to the peak sum (P/(P+S)). This value is used to compare wells with compounds and wells with controls and thus determine the % of inhibition for the given product.
The followings kinases were used for the enzymatic inhibition studies, between brackets the value of the Michaelis-Menten constant, Km, of the ATP (Adenosine triphosphate) for each kinase, in μM: obtained from Carna Biosciences: MAPKAPK2 (4.6), AurA (3.6), AurB (5), PKCζ (3.8), RSK1 (23.3), PRAK (5), Erk1 (33.4), PKD2 (32.1), CK1d (16.3), CHK1 (33), ABL (61.7), FYN (36), LYNa (17), CHK2 (57.8), MET (79.5), LCK (28.5), SRC (38), GSK3β (7.3), Erk2 (62.1), PKACα (1.7), AKT2 (186.1), INSR (871.8), p38a (396.5), AKT1(48), MSK1 (21.2), PKCβ2 (84.8), ROCK2 (3.3), PIM2 (4.9), AMPK (38.6), KDR (164.8), IRAK4 (196.5), SGK1 (121.8), SYK (33.5); obtained from Invitrogen: CDK2 (57.6), BTK (123), HGK (80); obtained from Upstate: MST2 (36.6), PKGα (16), PAK2 (1.9), IGF1R (320), FGFR1 (171), MARK1 (33), CAMK2δ (22.4), c-TAK1 (66), DYRK1a (18.1), CaMK4 (3.9), FLT3 (350), c-Raf (6.2), P70S6K (95).
The compounds were dissolved in 100% DMSO and were diluted at 25 times the final concentration desired for the assay. In the case of the determination of Cl50, serial dilutions were made to reach eight concentrations and give rise to the inhibition curve. 1 μL of each concentration is transferred, in duplicate to a 384-well microplate. 12 μL of enzymatic buffer is added to each well containing purified kinase (several suppliers as indicated above), 100 mM HEPES, pH 7.5, 1 mM DTT (Calbiochem), 0.002% Brij-35 (Sigma) and also in presence of 10 mM MgCl2 as cofactor, except for INSR and IRAK4 wherein 10 mM MnCl2 is used instead of MgCl2. For the kinases CAMK26 and CAMK4, 1 mM CaCl2 and 6.7 μg/mL of calmodulin are also added. For KDR kinase, 0.05% of the CHAPSO detergent is added. For the c-Raf kinase, 10 mM MnCl2 is added. For PKCβ2 0.02 μg/mL of PS/PMA is added. For PKGα se 10 μM of cGMP (cyclic guanosine monophosphate) is added. The compound and the enzyme are left for 15 minutes preincubation and, then, the following are added to each well: 12 μL of peptide buffer/ATP containing 100 mM HEPES, pH 7.5, 1.5 μM peptide marker with fluorescein (specific for the corresponding kinase), ATP (at concentration KM), and 0.002% Brij-35 to start the reaction. Generally, the reactions are incubated for 1-1.5 h at ambient temperature to obtain an adequate conversion (15-40%) of the peptide to the phosphorylated product. The reactions were ended by the addition of 45 μL of buffer containing 0 mM EDTA. The microplates were read by the LabChip 3000 using a 12-channel LabChip. The P/(P+S) values were obtained as described above and the CI50 curves were generated using XIfit.
Table 9a has the 0150 data obtained in pairs of compound-kinase selected from the compounds of formula (VII), (VIII), (IX), (XVI), (XVII) and (XVIII) after taking inhibition measurements at 100 nM and 10 nM. Those couples that provide >70% of inhibition at 10 nM were consider for measuring its IC50. […]

Structure (SMILES)	inhibition at 0.01 µM	inhibition at 0.1 µM	pIC50
C[C@@H]1O[C@@H](n2c3ccccc3c3c4c(c5c6ccccc6[nH]c5c32)C(=O)NC4=O)C[C@H](O)[C@H]1O [formula (IV), N^13-1′-β-L-olivosylarcyriaflavin]	5%	35%	
C[C@]12O[C@H](C[C@H](O)[C@H]1O)n1c3ccccc3c3c4c(c5c6ccccc6n2c5c31)C(=O)NC4=O [formula (VIII), N^12-5′(S)-N^13-1′-(R)-L-olivosylarcyriaflavin]			8.31
C[C@H]1O[C@@H](n2c3ccccc3c3c4c(c5c6ccccc6[nH]c5c32)CNC4=O)C[C@@H](O)[C@@H]1O [formula (XV), N^13-1′-β-D-olivosyl-k252c]	4%	20%	
C[C@]12O[C@H](C[C@@H](O)[C@H]1O)n1c3ccccc3c3c4c(c5c6ccccc6n2c5c31)CNC4=O [formula (XVIII), N^12-5′(S)-N^13-1′-(R)-L-digitoxosyl-k252c]			< 8.00
C[C@@H]1O[C@@H](n2c3ccccc3c3c4c(c5c6ccccc6[nH]c5c32)CNC4=O)[C@H](O)[C@H](O)[C@H]1O [formula (XII), N^13-1′-β-L-rhamnosyl-k252c]	2%	8%	
C[C@@H]1O[C@@H](n2c3ccccc3c3c4c(c5c6ccccc6[nH]c5c32)CNC4=O)C[C@@H](O)[C@H]1O [formula (XIV), N^13-1′-β-L-digitoxosyl-k252c]	6%	46%	
C[C@@H]1O[C@@H](n2c3ccccc3c3c4c(c5c6ccccc6[nH]c5c32)CNC4=O)C[C@H](O)[C@H]1O [formula (XIII), N^13-1′-β-L-olivosyl-k252c]	1%	27%	
C[C@]12O[C@H]([C@H](O)[C@H](O)[C@H]1O)n1c3ccccc3c3c4c(c5c6ccccc6n2c5c31)C(=O)NC4=O [formula (VII), N^12-5′(S)-N^13-1′-(R)-L-rhamnosylarcyriaflavin]			9.00
C[C@]12O[C@H]([C@H](O)[C@H](O)[C@H]1O)n1c3ccccc3c3c4c(c5c6ccccc6n2c5c31)CNC4=O [formula (XVI), N^12-5′(S)-N^13-1′-(R)-L-rhamnosyl-k252c]			8.62
C[C@@H]1O[C@@H](n2c3ccccc3c3c4c(c5c6ccccc6[nH]c5c32)C(=O)NC4=O)C[C@@H](O)[C@H]1O [formula (V), N^13-1′-β-L-digitoxosylarcyriaflavin]	45%	81%	
C[C@@H]1O[C@@H](n2c3ccccc3c3c4c(c5c6ccccc6[nH]c5c32)C(=O)NC4=O)[C@H](O)[C@H](O)[C@H]1O [formula (III), N^13-1′-β-L-rhamnosylarcyriaflavin]	-3%	15%	
C[C@H]1O[C@@H](n2c3ccccc3c3c4c(c5c6ccccc6[nH]c5c32)C(=O)NC4=O)C[C@@H](O)[C@@H]1O [formula (VI), N^13-1′-β-D-olivosylarcyriaflavin]	2%	50%	
